Patent publication US8529951B1, “Elastogenic cues and methods for using same” (priority 2007, dated 2013)

Assays:
lysyl oxidase (LOX) [1] = target: T1, lysyl oxidase (LOX) (Rattus norvegicus, UniProt P16636); assay: LOX functional activity (fluorometric Amplex red assay of spent medium); format: cell-based; details: 21 days
T1 construct: spent culture medium pooled at day 21 of a culture was assayed; endogenous in cells; host or cells: adult rat aortic smooth muscle cells (RASMCs; Cell Applications), spent culture medium
T1 sequence (P16636 163-411): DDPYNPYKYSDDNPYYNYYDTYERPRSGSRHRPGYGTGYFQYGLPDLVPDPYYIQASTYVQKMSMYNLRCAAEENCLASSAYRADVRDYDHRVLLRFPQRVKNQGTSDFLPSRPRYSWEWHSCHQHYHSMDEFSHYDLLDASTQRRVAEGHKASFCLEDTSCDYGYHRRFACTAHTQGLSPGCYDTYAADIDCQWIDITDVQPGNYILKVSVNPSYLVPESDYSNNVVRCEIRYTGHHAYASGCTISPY
Description: To determine LOX functional activity, spent culture medium pooled at day 21 of a culture was assayed using a fluorometric assay based on generation of H2O2 when LOX acts on a synthetic substrate. H2O2 was detected using an Amplex® red kit (Molecular Probes, OR,). The fluorescence intensities were recorded with excitation and emission wavelengths at 560 nm and 590 nm, respectively

RASMCs [2] = assay: Collagen synthesis by RASMCs (hydroxy-proline assay); format: cell-based, rat
RASMCs [3] = assay: RASMC proliferation (fluorometric DNA assay of cell layers); format: cell-based, rat
Description: At 1 and 21 days of culture, the DNA content of the cell layers was measured to determine the proliferation of SMCs and to normalize the measured amounts of synthesized matrix (elastin, collagen). The fluorometric DNA assay, described previously by Labarca and Paigen (Labarca C, Paigen K. A simple, rapid, and sensitive DNA assay procedure. Anal Biochem. 1980; 102:344-52), was performed on cell layers processed as described previously (Joddar B, Ramamurthi A. Fragment size- and dose-specific effects of hyaluronan on matrix synthesis by vascular smooth muscle cells. Biomaterials. 2006; 27(15): 2994-3004). Actual cell counts were then calculated on the basis of an estimated 6 pg DNA/cell.

RASMCs [4] = assay: Desmosine content of cell-matrix layers (ELISA); format: cell-based, rat; details: Example 1
Description: Desmosine content of the cell-matrix layers was determined in expectation that it would correlate with the amounts of crosslinked elastin and serve as an indirect confirmation of the earlier observed biochemical trends, with regard to synthesis of matrix elastin. To assess desmosine content, compounded test and control cell pellets were digested with collagenase type VII (Sigma; 12 h, 37° C.) and re-centrifuged (3000 g, 10 min, 4° C.) to obtain a supernatant (SI) and a pellet. This pellet was digested with pancreatic porcine elastase type III (Sigma; 12 h, 37° C.) to obtain a soluble peptide fraction (SII). Fractions SI and SII were pooled together, acid-hydrolyzed with 6 N HCl (110° C., 16 h), dried under a stream of inert N2, re-constituted in water and the desmosine content determined by ELISA as previously done.

RASMCs [5] = assay: Tropoelastin synthesis by RASMCs (Fastin assay of pooled spent medium); format: cell-based, rat; details: Example 1, 21-day culture, n=3
RASMCs [6] = assay: Elastase degradation of elastin isolated from cultured cell layers; format: cell-based, rat; details: 8-hour enzymatic digestion
Description: Enzymatic degradation studies were performed to compare the impact of HA oligomer exposure and their mode of delivery on elastin matrix quality, particularly their resistance to enzymatic breakdown. Elastin matrices isolated by alkali digestion of aortae explanted from adult Sprague-Dawley rats served as additional controls for these studies. Briefly, adult rat aortal segments were removed from euthanized rats, from arch to the celiac axis, under sterile conditions, and spliced lengthwise in petri dishes containing cold phosphate-buffered saline (PBS) containing 2 mM Ca^2+. These spliced sections were then transferred to a dish containing 1-2 ml of collagenase (2 mg/ml; Worthington, Lakewood, N.J.) and incubated for 10 minutes at 37° C. DMEM:F12 media was then added to these collagenase treated samples and mixed well with gentle pipetting. Isolated aortal segments were further chopped crosswise into […] pieces and transferred using fine needles onto sterile petri dishes and stored in PBS at 4° C. until further use. Cell layers were scraped off the culture wells, pelleted by centrifugation (2000 g, 15 min), and stored at −20° C. in PBS until further use (n=9/case).
HA tetramers as described above in Example 1 were tethered onto 4-well glass chamber slides (Nalge Nunc International, Naperville, Ill.). […]

RASMCs [7] = assay: SDS-PAGE/Western blot of soluble tropoelastin in spent medium; format: cell-based, rat; details: Example 1, n=3/case
Description: SDS-PAGE and Western Blot were performed to confirm the observed biochemical trends for synthesis of soluble tropoelastin. Briefly, the aliquots of spent medium removed and pooled at bi-weekly intervals over the 21-day culture period, were lyophilized, assayed for protein content using a DC protein assay kit (Biorad Corporation, Hercules, Calif.), and subjected to SDS-PAGE and Western Blot. Optimized sample amounts (20 μg) were appropriately mixed and boiled (100° C., 5 min) with a loading buffer (2% w/v Sodium Dodecyl Sulfate (SDS), 62 mM Trizma base, 10% v/v Glycerol, 600 mM dithiothreitol), flash-spun in an ultracentrifuge (500 g, 2 min) and loaded under reduced conditions onto 10% w/v polyacrylamide gels (Novex Tris-Glycine gels, Invitrogen Corporation, Carlsbad, Calif.), with prestained protein standards ranging between 10-190 kDa (Benchmark Pre-stained Protein Ladder, Invitrogen) and western blot standards ranging between 20-220 kDa (MagicMark XP Western Protein Standards, Invitrogen). […] Following electrophoresis, the protein bands were transferred onto a PVDF pre-wetted membrane, developed, imaged using trans-white light, and quantified using the Alpha Innotech imaging software (Alpha Ease FC; Chemi-imager 4400) as described previously. […]

RASMCs [8] = assay: Matrix elastin synthesis by RASMCs (Fastin assay; alkali-soluble and alkali-insoluble fractions); details: for increase of total matrix production: Example 3, growth factor only (no HA), 3 weeks
lysyl oxidase (LOX) [9] = assay: LOX protein synthesis (Western blot of spent medium); details: Example 3, 16 day culture, alone or together with HA fragments

## O=S(=O)([O-])[O-].[Cu+2] [copper sulfate]
Lysyl oxidase (LOX) [1]; Example 4, 0.01 M alone
  LOX activity vs. controls: 1.4±0.2
Lysyl oxidase (LOX) [1]; Example 4, 0.1 M alone or concurrent with HA fragments (except VLMW HA)
  basal LOX functional activity: no significant effect
RASMCs [2]; Example 4, 0.01 M alone
  total collagen output per ng DNA vs. non-additive controls: 0.5±0.04 fold
RASMCs [2]; Example 4, 0.01 M copper sulfate in the presence of oligomers, VLMW and HMW HA
  collagen synthesis vs. controls: consistently suppressed
RASMCs [2]; Example 4, 0.1 M alone
  total collagen output per ng DNA vs. non-additive controls: 4.1±0.4 fold
RASMCs [3]; Example 4, 0.01 M copper sulfate and HA fragments
  cell proliferation: stimulated

## CC(=O)N[C@H]1[C@H](O[C@H]2[C@H](O)[C@@H](O)[C@H](O[C@H]3[C@H](O)[C@@H](CO)OC(O)[C@@H]3NC(C)=O)O[C@@H]2C(=O)O)O[C@H](CO)[C@@H](O)[C@@H]1O[C@@H]1O[C@H](C(=O)O)[C@@H](O)[C@H](O)[C@H]1O (stereo partly drawn) [pure HA 4-mer]
RASMCs [4]
  desmosine amount normalized to DNA and to non-HA controls: 4.76±0.10
RASMCs [2]; Example 1, 21-day culture
  collagen production (DNA normalized) relative to respective controls: 2.0±0.1 times
RASMCs [3]; Example 1, 21 days of culture, n=3
  proliferation, times number at 1 day: 1.66±0.05 times number at 1 day
RASMCs [5]
  tropoelastin output (DNA normalized) relative to respective control cultures: 1.63±0.06 times
RASMCs [6]; exogenous HA 4 mers
  % weight loss of cell pellet elastin on elastase digestion: 35%
RASMCs [6]; surface-tethered HA 4 mers
  % weight loss of cell pellet elastin on elastase digestion: 50%
RASMCs [7]
  normalized tropoelastin band intensity (pixel intensity per ng DNA): 0.15±0
RASMCs [8]; Example 1, 21-day culture
  DNA normalized matrix elastin output relative to controls: 2.7±0.3 times

## O=S(=O)([O-])[O-].[Na+].[Na+] [sodium sulfate, reference compound]
RASMCs [2]; Example 4, 0.01 M alone
  total collagen output per ng DNA vs. non-additive controls: 1.1±0.13 fold
RASMCs [2]; Example 4, 0.1 M alone
  total collagen output per ng DNA vs. non-additive controls: 0.94±0.15 fold
RASMCs [3]; Example 4, alone, irrespective of the added dose (0.01 and 0.1 M)
  RASMC proliferation vs. controls: no effect

## IGF-1: insulin-like growth factor, added at 500 ng/ml
RASMCs [3]; Example 3, 21 days, all cases except in the presence of oligomers and HMWHA
  inhibition of cell proliferation: 50%
RASMCs [8]; Example 3, IGF-1 only with no HA
  elastin matrix production compared to control: did not upregulate
RASMCs [8]
  increase of total matrix production: 150±20%

## TGF-β: transforming growth factor, added at 1 ng/ml
Lysyl oxidase (LOX) [9]
  LOX protein synthesis: enhanced
RASMCs [2]; Example 3, in inverse correlation to the added HA fragment size
  collagen production: inhibit
RASMCs [8]; Example 3
  crosslinking of soluble tropoelastin into matrix elastin: significantly enhance
RASMCs [8]
  increase of total matrix production: 270±12%
